{"source": "patent US20100130549A1", "about": "“PSYCHOTROPIC COMPOUNDS, COMPOSITIONS AND METHODS OF USE” (priority 2007, published 2010)", "key": {"[1]": {"target": "Serotonin (5-Hydroxytryptamine) 5-HT6 (Homo sapiens, UniProt P50406)", "sequence (P50406 whole entry)": "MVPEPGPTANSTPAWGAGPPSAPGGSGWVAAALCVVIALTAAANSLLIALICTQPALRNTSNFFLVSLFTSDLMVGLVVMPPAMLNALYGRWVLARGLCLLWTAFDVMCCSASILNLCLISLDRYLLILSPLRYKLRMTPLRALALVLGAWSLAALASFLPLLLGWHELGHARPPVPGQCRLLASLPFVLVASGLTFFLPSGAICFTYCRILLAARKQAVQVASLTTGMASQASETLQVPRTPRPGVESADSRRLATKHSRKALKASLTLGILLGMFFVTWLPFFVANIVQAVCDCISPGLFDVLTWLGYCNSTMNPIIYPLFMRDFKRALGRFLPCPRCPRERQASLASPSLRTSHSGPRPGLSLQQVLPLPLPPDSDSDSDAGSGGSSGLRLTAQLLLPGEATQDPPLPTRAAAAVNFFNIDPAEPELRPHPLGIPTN", "experiment": "Radioligand binding assay, 5-HT6", "excerpt": "(§1) . Table 1 provides data produced via a receptor binding assay and IC50 and Ki determination. […] In addition, the compound of formula (Ia) has a potent DAT inhibition, which is indicative of dopaminergic uptake inhibition and increased DA activity. In addition to the effect on SERT and DAT, the compound of formula (Ia) inhibited the transporter of Norepinephrine (NET), and several neurotransmitter's receptors like alpha2A and alpha2C receptors, alpha 1A and alphal C, 5HT2A and 5HT2C, signal histamine2 and dopamine D1. This specific profile is in line with the data on antidepressant, anxiolytic and moderate neuro-stimulation activity observed in the animal model studies.\n(§2) With regard to the data provided in Table 1, the biochemical assay results are presented as the percent inhibition of specific binding or activity throughout the report. For primary assays, only the lowest concentration with a significant response judged by the assays’ criteria, is shown in this summary. […] Unless otherwise requested, primary screening in duplicate with quantitative data (e.g., IC50±SEM, Ki±SEM and nH) are shown."}, "Adrenergic α1D": {"target": "T1, Adrenergic α1D (Homo sapiens, UniProt P25100)", "T1 sequence (P25100 1-572)": "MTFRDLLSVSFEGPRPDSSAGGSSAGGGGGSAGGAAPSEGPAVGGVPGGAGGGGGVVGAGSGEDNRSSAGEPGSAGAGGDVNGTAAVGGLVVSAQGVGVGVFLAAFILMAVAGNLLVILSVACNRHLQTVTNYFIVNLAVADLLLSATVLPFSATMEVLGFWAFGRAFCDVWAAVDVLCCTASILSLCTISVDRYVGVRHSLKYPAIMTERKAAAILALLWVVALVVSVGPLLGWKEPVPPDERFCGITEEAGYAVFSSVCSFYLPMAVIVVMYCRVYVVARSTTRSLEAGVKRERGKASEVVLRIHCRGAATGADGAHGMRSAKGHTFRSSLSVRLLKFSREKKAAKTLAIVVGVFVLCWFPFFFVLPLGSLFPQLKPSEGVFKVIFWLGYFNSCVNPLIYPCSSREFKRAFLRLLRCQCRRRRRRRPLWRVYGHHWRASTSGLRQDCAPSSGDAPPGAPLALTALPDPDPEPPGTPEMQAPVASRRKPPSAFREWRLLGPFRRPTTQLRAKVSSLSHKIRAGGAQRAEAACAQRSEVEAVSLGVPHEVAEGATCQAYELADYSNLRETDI", "experiment": "Radioligand binding assay, Adrenergic α1D", "excerpt": "as §1, §2"}, "Histamine H2": {"target": "Histamine H2 (Homo sapiens, UniProt P25021)", "sequence (P25021 whole entry)": "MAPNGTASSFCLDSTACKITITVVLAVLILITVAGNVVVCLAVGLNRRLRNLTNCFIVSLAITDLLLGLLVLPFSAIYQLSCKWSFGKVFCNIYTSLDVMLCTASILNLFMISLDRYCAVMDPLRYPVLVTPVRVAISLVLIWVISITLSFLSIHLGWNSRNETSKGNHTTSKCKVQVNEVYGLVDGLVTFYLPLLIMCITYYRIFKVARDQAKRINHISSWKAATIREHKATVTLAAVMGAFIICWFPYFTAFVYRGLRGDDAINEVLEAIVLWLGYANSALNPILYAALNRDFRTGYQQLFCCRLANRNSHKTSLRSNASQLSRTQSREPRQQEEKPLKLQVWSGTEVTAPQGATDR", "experiment": "Radioligand binding assay, Histamine H2", "excerpt": "as §1, §2"}, "Dopamine D1": {"target": "Dopamine D1 (Homo sapiens, UniProt P21728)", "sequence (P21728 whole entry)": "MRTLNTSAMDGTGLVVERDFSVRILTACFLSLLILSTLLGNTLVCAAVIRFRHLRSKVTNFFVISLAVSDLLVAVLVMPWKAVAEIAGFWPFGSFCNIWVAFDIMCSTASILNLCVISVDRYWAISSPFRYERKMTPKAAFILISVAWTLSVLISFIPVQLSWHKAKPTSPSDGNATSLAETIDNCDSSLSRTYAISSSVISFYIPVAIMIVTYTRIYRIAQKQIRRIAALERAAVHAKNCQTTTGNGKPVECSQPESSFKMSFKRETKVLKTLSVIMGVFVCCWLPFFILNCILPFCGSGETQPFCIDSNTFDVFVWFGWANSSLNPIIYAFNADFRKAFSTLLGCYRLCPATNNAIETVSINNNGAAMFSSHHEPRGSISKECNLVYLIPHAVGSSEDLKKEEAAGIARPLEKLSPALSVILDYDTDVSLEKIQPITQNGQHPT", "experiment": "Radioligand binding assay, Dopamine D1", "excerpt": "as §1, §2"}, "[2]": {"target": "Trasnporter, Dopamine (DAT) (Homo sapiens, UniProt Q01959)", "sequence (Q01959 whole entry)": "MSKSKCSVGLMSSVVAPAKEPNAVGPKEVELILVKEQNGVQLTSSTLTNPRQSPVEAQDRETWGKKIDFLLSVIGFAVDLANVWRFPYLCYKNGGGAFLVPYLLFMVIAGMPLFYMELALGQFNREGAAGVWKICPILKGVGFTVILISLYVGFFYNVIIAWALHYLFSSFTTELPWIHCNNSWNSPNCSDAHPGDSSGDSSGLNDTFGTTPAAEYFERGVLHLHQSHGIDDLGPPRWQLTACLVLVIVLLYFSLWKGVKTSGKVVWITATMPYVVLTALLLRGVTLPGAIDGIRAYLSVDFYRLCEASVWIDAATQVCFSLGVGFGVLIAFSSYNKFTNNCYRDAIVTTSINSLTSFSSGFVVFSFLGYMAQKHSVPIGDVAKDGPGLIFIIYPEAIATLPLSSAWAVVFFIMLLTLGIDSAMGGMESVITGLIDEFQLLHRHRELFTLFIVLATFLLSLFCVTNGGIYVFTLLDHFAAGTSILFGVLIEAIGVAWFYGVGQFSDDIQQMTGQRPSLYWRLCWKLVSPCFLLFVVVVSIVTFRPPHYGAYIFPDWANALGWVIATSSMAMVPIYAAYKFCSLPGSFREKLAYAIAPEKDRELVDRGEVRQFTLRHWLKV", "experiment": "Radioligand binding assay, Dopamine transporter", "excerpt": "as §2"}, "[3]": {"target": "Transporter, Serotonin (5-Hydroxytryptamine) (SERT) (Homo sapiens, UniProt P31645)", "sequence (P31645 whole entry)": "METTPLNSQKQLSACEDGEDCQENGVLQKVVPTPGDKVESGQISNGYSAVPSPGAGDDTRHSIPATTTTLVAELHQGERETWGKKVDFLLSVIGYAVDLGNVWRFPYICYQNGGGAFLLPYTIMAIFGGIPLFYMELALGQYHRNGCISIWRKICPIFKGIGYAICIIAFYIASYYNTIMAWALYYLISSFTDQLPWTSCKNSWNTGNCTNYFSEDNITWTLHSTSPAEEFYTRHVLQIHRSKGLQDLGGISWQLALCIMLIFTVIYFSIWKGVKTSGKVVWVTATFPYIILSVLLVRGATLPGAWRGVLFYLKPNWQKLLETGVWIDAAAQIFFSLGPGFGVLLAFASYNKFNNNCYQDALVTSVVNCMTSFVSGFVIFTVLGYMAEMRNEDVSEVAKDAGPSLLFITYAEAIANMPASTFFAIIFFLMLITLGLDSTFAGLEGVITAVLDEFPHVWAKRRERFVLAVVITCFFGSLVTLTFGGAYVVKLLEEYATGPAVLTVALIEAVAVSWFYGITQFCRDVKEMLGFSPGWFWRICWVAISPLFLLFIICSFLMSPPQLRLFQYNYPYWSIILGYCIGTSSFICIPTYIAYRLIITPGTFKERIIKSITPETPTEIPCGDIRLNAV", "experiment": "Radioligand binding assay, Serotonin transporter", "excerpt": "as §2"}, "BALB/c mice [4]": {"system": "BALB/c mice", "experiment": "Rotor rod test (motor activity)", "type": "in vivo", "settings": "10 mg/kg p.o., 90 min after administration; vs controls", "protocol": "The test was performed 90 min after oral administration of the compounds. […] The rotor rod test involves placing the mouse on an elevated rotating bar. In this test, the mouse is placed on the bar such that it is facing the direction opposite to the rotation of the rod. The time lag to fall is determined."}, "BALB/c mice [5]": {"system": "BALB/c mice", "experiment": "Acute toxicity, ip administration", "type": "in vivo", "settings": "ip up to 30 mg/kg", "protocol": "[…]. […] The body weight of the mice was determined up to 12 days after administration of the compounds."}, "ICR male mice": {"system": "ICR male mice", "experiment": "Subchronic ip administration (toxicity)", "type": "in vivo", "settings": "mouse, in vivo, ip, 30 mg/kg", "excerpt": "[…]. Except for this local irritation no other toxicity was noted.\n[…]. […] Except of these local irritations no other toxicity was noted."}, "BALBc male mice": {"system": "BALBc male mice", "experiment": "Hot plate test", "type": "in vivo", "settings": "10 mg/kg orally (sertraline equimolar)", "excerpt": "The hot-plate test is widely used to measure pain sensation. The latency in response to heat of mice and rats feet is based on the method described by Eddy et al., Synthetic analgesics. II. […] The method is based on placing an animal on heated (52-56 C) surface and measuring the time to response (raising paw, licking of the paw, jumping or running.\nThe animals were followed for 6 hr."}, "BALB/c mice [6]": {"system": "BALB/c mice", "experiment": "Open field test"}, "SHSY5Y cell-line": {"system": "SHSY5Y cell-line", "experiment": "Cell viability, neutral red method"}, "[7]": {"settings": "10 mg/kg (equimolar) ip 1 hr prior"}, "[8]": {"settings": "10 mg/kg (equimolar) ip 1 hr prior, p<0.001 vs controls"}}, "note": "pIC50, pKi: −log10 of the molar value. Several values for one entry are separate records, joined by “and”; a condition that tells them apart may be missing. Equal values may be shown once.", "data": [{"compound": "CN[C@H]1CC[C@@H](c2ccc(Cl)c(Cl)c2)c2ccc(C#CCCCO)cc21", "note": "[compound Ia, (1S-cis)-4-(3,4-dichlorophenyl)-7-(5-hydroxy-1-pentyn-1-yl)-1,2,3,4-tetrahydro-N-methyl-1-naphthalenamine hydroiodide]", "values": [{"measurement": "pIC50", "setting": "[1]", "result": 5.59}, {"measurement": "nH", "setting": "[1]", "result": 1.16}, {"measurement": "inhibition at 3 µM", "setting": "[1]; 3 μM", "result": 51, "unit": "%"}, {"measurement": "pKi", "setting": "[1]; read-out: K1", "result": 5.92}, {"measurement": "pIC50", "setting": "Adrenergic α1D", "result": 5.60}, {"measurement": "nH", "setting": "Adrenergic α1D", "result": 1.04}, {"measurement": "inhibition at 3 µM", "setting": "Adrenergic α1D; 3 μM", "result": 54, "unit": "%"}, {"measurement": "pKi", "setting": "Adrenergic α1D; read-out: K1", "result": 5.91}, {"measurement": "pIC50", "setting": "Histamine H2", "result": 5.81}, {"measurement": "nH", "setting": "Histamine H2", "result": 1.37}, {"measurement": "inhibition at 3 µM", "setting": "Histamine H2; 3 μM", "result": 70, "unit": "%"}, {"measurement": "pKi", "setting": "Histamine H2; read-out: K1", "result": 5.89}, {"measurement": "pIC50", "setting": "Dopamine D1", "result": 5.57}, {"measurement": "nH", "setting": "Dopamine D1", "result": 1.25}, {"measurement": "inhibition at 10 µM", "setting": "Dopamine D1; 10 μM", "result": 84, "unit": "%"}, {"measurement": "pKi", "setting": "Dopamine D1; read-out: K1", "result": 5.87}, {"measurement": "pIC50", "setting": "[2]", "result": "> 6.52"}, {"measurement": "inhibition at 0.03 µM", "setting": "[2]; 0.03 μM", "result": 51, "unit": "%"}, {"measurement": "pKi", "setting": "[2]; read-out: DAT final Ki", "result": 7.54}, {"measurement": "pIC50", "setting": "[3]", "result": "> 6.52"}, {"measurement": "inhibition at 0.03 µM", "setting": "[3]; 0.03 μM", "result": 86, "unit": "%"}, {"measurement": "pKi", "setting": "[3]; read-out: SERT final Ki", "result": 8.96}, {"measurement": "muscle strength and basic motor activity", "setting": "BALB/c mice [4]", "result": "did not modify"}, {"measurement": "survival", "setting": "BALB/c mice [5]", "result": "all of the corresponding animals survived"}, {"measurement": "histopathology of heart, spleen, liver and kidney", "setting": "ICR male mice", "result": "minimal to mild irritation"}, {"measurement": "time after drug administration with significant effect on reaction to heating", "setting": "BALBc male mice; followed for 6 hr, hydroiodide", "result": "120 min and 240 min"}, {"measurement": "latency to heat sensation", "setting": "BALBc male mice; vs vehicle treated control", "result": "significantly increase"}, {"measurement": "ratio (center/periphery)", "setting": "BALB/c mice [6]; [7]", "result": "significantly increase"}, {"measurement": "total time spent in the center (areas 2+3)", "setting": "BALB/c mice [6]; [7]", "result": "significantly increase"}, {"measurement": "frequency to the center", "setting": "BALB/c mice [6]; 10 mg/kg (equimolar) ip 1 hr prior, controls 1.23", "result": 1.35}, {"measurement": "distance moved", "setting": "BALB/c mice [6]; [8]", "result": "significantly increase"}, {"measurement": "velocity", "setting": "BALB/c mice [6]; [8]", "result": "significantly increase"}, {"measurement": "sedative effect accompanying the anxiolytic activity", "setting": "BALB/c mice [6]; orally 90 min prior", "result": "not accompanied by a sedative effect"}, {"measurement": "increase in cell viability compared to control vehicle treated cells", "setting": "SHSY5Y cell-line; 1-5 μM, 24 and 48 hours incubation", "result": "13-25%"}, {"measurement": "effect on cell viability over concentration range", "setting": "SHSY5Y cell-line; 1-50 μM, low concentrations neurotrophic, high concentrations apoptosis", "result": "biphasic effects"}, {"measurement": "concentration of maximal neurotropic activity", "setting": "SHSY5Y cell-line; concentration range 1-50 μM", "result": 1, "unit": "µM"}]}]}
